These compounds were tested against T1, hPASK (Homo sapiens, UniProt Q96RG2) (assay: PAS Kinase FRET Assay (Biochemical Assay for hPASK Activity)). Details: TR-FRET (665 nm/615 nm), 2 hours at 25° C.; read-out: IC50 Kinase Domain.
T1 construct: IC50 Kinase Domain; purchased Invitrogen
Description: Biochemical Assay for hPASK Activity
The aim of the FRET assay is to determine the inhibition potential of test compounds on targeted kinase. This assay platform provides a homogenous screening method for measuring kinase activity by quantitating the amount of phospho-substrate in solution following a kinase reaction.
In the presence of kinase and ATP, the Ulight-peptide is phosphorylated and captured by an anti-phospho-substrate antibody, which brings the Eu chelate donor and Ulight acceptor dyes into close proximity. Upon excitation at 340 nm, the Eu chelate transfers its energy to the Ulight dye, resulting in a fluorescent light emission at 665 nm.
Titration of kinase at 1 mM ATP was achieved via the following protocol. After making serial three-fold dilutions of PASK (Invitrogen) in reaction buffer across the plate; 5 μl of kinase dilution and 5 μl substrate/ATP mix were added to the wells of the white Optiplate-384 (PerkinElmer). The contents of the plate were and incubated at RT for 1 h. The reaction was stopped by adding 5 μl of stop solution to each test well followed by mixing and incubation at RT for 10 minutes. 5 μl of detection mix (detection antibody diluted in detection buffer) was added; the contents of the plate were mixed and then incubated in the dark for 1 hour at RT. The signal was recorded at TR-FRET mode (665 nm/615 nm). The results were graphed to calculate the EC50.
Titration of ATP at the EC50 concentration of kinase to determine ATP Km, app. was performed using the following method. After making serial dilutions of ATP (Invitrogen), 5 μl of ATP dilution and 5 μl substrate/kinase mix were added to the wells of the white Optiplate-384 (PerkinElmer). The contents of the plate were and incubated at RT for 1 h. The reaction was stopped by adding 5 μl of stop solution to each test well followed by mixing and incubation at RT for 10 minutes. 5 μl of detection mix (detection antibody diluted in detection buffer) was added; the contents of the plate were mixed and then incubated in the dark for 1 hour at RT. The signal was recorded at TR-FRET mode (665 nm/615 nm). The results were graphed to calculate the EC50 as the ATP Km,app.
Compound screening was done via the following method. 10 mM stock solution of test compound in DMSO was prepared by dissolving test compound in DMSO at RT for 1 hour, and then sonicating at 100% output for 8 minutes. If compound is not soluble under this condition, it was diluted to 3 mM. Kinase reaction buffer was prepared containing 10 mM MgCl2, 50 mM HEPES, 1 mM EGTA, 0.01% TWEEN-20, 2 mM DTT. Serial dilutions of the test compounds were prepared at 4× final assay concentrations using Freedom EVO200® dispensing system as follows: 12×10^−5 M, 4×10^−5M, 1.33×10^−5M, 4.44×10^−6M, 1.48×10^−6M, 4.92×10^−7M, 1.65×10^−7M, 5.48×10^−7 M, 1.82×10^−8 M, 6.09×10^−9, 2.03×10^−9 M. Test compounds (2.5 μl at 4× the final assay concentration) was added to wells using Freedom EVO200® dispensing system. As a positive control, 2.5 μl of positive compound was added to assay wells, and 2.5 μl of DMSO to assay wells as vehicle control. Kinase solution was prepared in reaction buffer at 2× final assay concentration. Kinase solution (5 μl) was added to each well of the assay plate. The substrate and ATP solution was prepared in kinase reaction buffer at 4× final assay concentration. The kinase reaction was started by adding 2.5 μl of substrate+ATP mix solution to each well of the assay plate. The plate is mixed on a plate shaker; then covered and allowed to react for 2 hours in the dark at 25° C. without shaking. The reaction was stopped by adding 5 μl of stop solution to each test well followed by mixing and incubation at RT for 10 minutes in the dark. 5 μl of detection mix (detection antibody diluted in detection buffer) was added; the contents of the plate were mixed and then incubated in the dark for 1 hour at RT. The signal was recorded at TR-FRET mode (665 nm/615 nm).

T1 sequence (Q96RG2 999-1251 limits assumed): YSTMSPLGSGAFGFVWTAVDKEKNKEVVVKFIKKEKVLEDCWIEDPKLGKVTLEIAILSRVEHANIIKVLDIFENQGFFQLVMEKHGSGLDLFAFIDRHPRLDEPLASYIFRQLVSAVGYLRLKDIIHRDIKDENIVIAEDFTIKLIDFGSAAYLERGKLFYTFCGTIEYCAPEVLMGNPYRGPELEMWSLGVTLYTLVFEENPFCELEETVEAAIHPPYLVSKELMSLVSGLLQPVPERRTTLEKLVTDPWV

`O=C(O)c1ccc2nc(-c3ccc(F)cc3)c(N3CCCc4ccccc43)nc2c1` [Example 1, 3-(1,2,3,4-Tetrahydroquinolin-1(2H)-yl)-2-(4-fluorophenyl)quinoxaline-6-carboxylic acid] and `O=C(O)c1ccc2nc(-c3ccc(F)cc3)c(N3CCCc4cc(F)ccc43)nc2c1` [Example 6, 3-(6-Fluoro-1,2,3,4-tetrahydroquinolin-1-yl)-2-(4-fluorophenyl)quinoxaline-6-carboxylic acid] cannot be ordered by IC50: at most 10 µM for the first, at most 10 µM for the second.

`O=C(O)c1ccc2nc(-c3cc4ccccc4o3)c(N3CCCc4ccccc43)nc2c1` [Example 2, 2-(Benzofuran-2-yl)-3-(1,2,3,4-tetrahydroquinolin-1(2H)-yl)quinoxaline-6-carboxylic acid] and `O=C(O)c1ccc2nc(-c3cc4cc(F)ccc4o3)c(N3CCCc4ccccc43)nc2c1` [Example 3, 3-(1,2,3,4-Tetrahydroquinolin-1(2H)-yl)-2-(5-fluorobenzofuran-2-yl)quinoxaline-6-carboxylic acid] cannot be ordered by IC50: at most 10 µM for the first, at most 10 µM for the second.

`O=C(O)c1ccc2nc(-c3ccc4c(c3)OCCO4)c(N3CCCc4ccccc43)nc2c1` [Example 4, 2-(2,3-Dihydro-1,4-benzodioxin-6-yl)-3-(1,2,3,4-tetrahydroquinolin-1-yl)quinoxaline-6-carboxylic acid] and `O=C(O)c1ccc2nc(-c3ccc(F)cc3)c(N3CCCc4cc5c(cc43)OCO5)nc2c1` [Example 24, 3-[2H,5H,6H,7H,8H-[1,3]Dioxolo[4,5-g]quinolin-5-yl]-2-(4-fluorophenyl)quinoxaline-6-carboxylic acid] cannot be ordered by IC50: at most 10 µM for the first, at most 10 µM for the second.

`COc1ccc2c(c1)CCCN2c1nc2cc(C(=O)O)ccc2nc1-c1ccc(F)cc1` [Example 5, 2-(4-Fluorophenyl)-3-(6-methoxy-1,2,3,4-tetrahydroquinolin-1-yl)quinoxaline-6-carboxylic acid] and `COc1ccc2c(c1)N(c1nc3cc(C(=O)O)ccc3nc1-c1ccc(F)cc1)CCC2` [Example 22, 2-(4-Fluorophenyl)-3-(7-methoxy-1,2,3,4-tetrahydroquinolin-1-yl)quinoxaline-6-carboxylic acid] cannot be ordered by IC50: at most 10 µM for the first, at most 10 µM for the second.

`COc1ccc2c(c1)CCCN2c1nc2cc(C(=O)O)ccc2nc1-c1cc2cc(F)ccc2o1` [Example 7, 2-(5-Fluoro-1-benzofuran-2-yl)-3-(6-methoxy-1,2,3,4-tetrahydroquinolin-1-yl)quinoxaline-6-carboxylic acid] and `COc1ccc2c(c1)CCCN2c1nc2cc(C(=O)O)ccc2nc1-c1cc2cc(Cl)ccc2o1` [Example 9, 2-(5-Chloro-1-benzofuran-2-yl)-3-(6-methoxy-1,2,3,4-tetrahydroquinolin-1-yl)quinoxaline-6-carboxylic acid] cannot be ordered by IC50: at most 10 µM for the first, at most 10 µM for the second.

`O=C(O)c1ccc2nc(-c3cc4cc(Cl)ccc4o3)c(N3CCCc4cc(F)ccc43)nc2c1` [Example 8, 2-(5-Chloro-1-benzofuran-2-yl)-3-(6-fluoro-1,2,3,4-tetrahydroquinolin-1-yl)quinoxaline-6-carboxylic acid] and `O=C(O)c1ccc2nc(-c3ccc(F)cc3)c(N3CCCc4cc(Cl)ccc43)nc2c1` [Example 18, 3-(6-Chloro-1,2,3,4-tetrahydroquinolin-1-yl)-2-(4-fluorophenyl)quinoxaline-6-carboxylic acid] cannot be ordered by IC50: at most 10 µM for the first, at most 10 µM for the second.

`O=C(O)c1ccc2[nH]c(=O)c(N3CCCc4ccccc43)nc2c1` [Example 10, 2-Oxo-3-(1,2,3,4-tetrahydroquinolin-1-yl)-1,2-dihydroquinoxaline-6-carboxylic acid] and `Cc1cc2cc(-c3nc4ccc(C(=O)O)cc4nc3N3CCCc4cc(F)ccc43)ccc2[nH]1` [Example 20, 3-(6-Fluoro-1,2,3,4-tetrahydroquinolin-1-yl)-2-(2-methyl-1H-indol-5-yl)quinoxaline-6-carboxylic acid] cannot be ordered by IC50: over 10 µM for the first, at most 10 µM for the second.

`N#Cc1ccc2c(c1)CCCN2c1nc2cc(C(=O)O)ccc2nc1-c1ccc(F)cc1` [Example 12, 3-(6-Cyano-1,2,3,4-tetrahydroquinolin-1-yl)-2-(4-fluorophenyl)quinoxaline-6-carboxylic acid] and `O=C(O)c1ccc2nc(-c3ccc(F)cc3)c(N3CCCc4cc(Br)ccc43)nc2c1` [Example 13] cannot be ordered by IC50: at most 10 µM for the first, at most 10 µM for the second.

`NC(=O)c1ccc2c(c1)CCCN2c1nc2cc(C(=O)O)ccc2nc1-c1ccc(F)cc1` [Example 14, 3-(6-Carbamoyl-1,2,3,4-tetrahydroquinolin-1-yl)-2-(4-fluorophenyl)quinoxaline-6-carboxylic acid] and `CN(C)c1ccc2c(c1)CCCN2c1nc2cc(C(=O)O)ccc2nc1-c1ccc(F)cc1` [Example 17, 3-[6-(Dimethylamino)-1,2,3,4-tetrahydroquinolin-1-yl]-2-(4-fluorophenyl)quinoxaline-6-carboxylic acid] cannot be ordered by IC50: at most 10 µM for the first, at most 10 µM for the second.

`O=C(O)c1ccc2nc(-c3ccc(F)cc3)c(N3CCCc4cc(C(=O)N5CCOCC5)ccc43)nc2c1` [Example 15, 2-(4-Fluorophenyl)-3-[6-[(morpholin-4-yl)carbonyl]-1,2,3,4-tetrahydroquinolin-1-yl]quinoxaline-6-carboxylic acid] and `O=C(O)c1ccc2nc(-c3ccc(F)cc3)c(N3CCCc4ccc(F)cc43)nc2c1` [Example 23, 3-(7-Fluoro-1,2,3,4-tetrahydroquinolin-1-yl)-2-(4-fluorophenyl)quinoxaline-6-carboxylic acid] cannot be ordered by IC50: at most 10 µM for the first, at most 10 µM for the second.

`CN(C)S(=O)(=O)c1ccc2c(c1)CCCN2c1nc2cc(C(=O)O)ccc2nc1-c1ccc(F)cc1` [Example 16, 3-[6-(Dimethylsulfamoyl)-1,2,3,4-tetrahydroquinolin-1-yl]-2-(4-fluorophenyl)quinoxaline-6-carboxylic acid] and `O=C(O)c1ccc2nc(-c3ccc(F)cc3)c(N3CCCc4c(F)cccc43)nc2c1` [Example 19] cannot be ordered by IC50: at most 10 µM for the first, at most 10 µM for the second.

For `O=C(O)c1ccc2nc(-c3ccc4[nH]ncc4c3)c(N3CCCc4cc(F)ccc43)nc2c1` [Example 21, 3-(6-Fluoro-1,2,3,4-tetrahydroquinolin-1-yl)-2-(1H-indazol-5-yl)quinoxaline-6-carboxylic acid], the IC50 was at most 10 µM.

Source: patent publication US9073902B2 (BioEnergenix, LLC, priority 2011, dated 2015)
